The source made the active and inactive calls. The calls are words filed in the database; no cut-off is given here.
Test system: Pyrrhocoris apterus
Assay: Juvenilizing effect assessed as inhibition of metamorphosis per individual in red firebug by drinking assay
Assay type: functional

Structure (SMILES) | ID50 [µg] | Activity
CCOC(=O)/C=C(\C)COc1ccc(C[C@H]2CCCC[C@@H]2O[C@@H]2O[C@H](CO)[C@@H](O)[C@H](O)[C@H]2O)cc1 | 1.3 | –
CCOC(=O)/C=C(/C)COc1ccc(C[C@H]2CCCC[C@@H]2O[C@@H]2O[C@H](CO)[C@@H](O)[C@H](O)[C@H]2O)cc1 (stereo in doubt; Z-14b) | – | inactive
CCOC(=O)/C=C(\C)COc1ccc(C[C@@H]2CCCC[C@@H]2O[C@@H]2O[C@H](CO)[C@H](O)[C@H](O)[C@H]2O)cc1 | 0.11 | –
CCOC(=O)/C=C(\C)COc1ccc(C[C@H]2CCCC[C@@H]2O[C@@H]2O[C@H](CO)[C@H](O)[C@H](O)[C@H]2O)cc1 | 1.9 | –
CCOC(=O)/C=C(/C)COc1ccc(C[C@@H]2CCCC[C@@H]2O[C@@H]2O[C@H](CO)[C@@H](O)[C@H](O)[C@H]2O)cc1 | 1.1 | –
CCOC(=O)/C=C(/C)COc1ccc(C[C@@H]2CCCC[C@@H]2O[C@@H]2O[C@H](CO)[C@H](O)[C@H](O)[C@H]2O)cc1 | 2.3 | –
CCOC(=O)/C=C(/C)COc1ccc(C[C@H]2CCCC[C@@H]2O)cc1 (stereo in doubt; Z-2b) | – | inactive
CCOC(=O)/C=C(\C)COc1ccc(C[C@H]2CCCC[C@@H]2O)cc1 | 0.32 | –
CCOC(=O)/C=C(\C)COc1ccc(C[C@@H]2CCCC[C@@H]2O[C@@H]2O[C@H](CO)[C@@H](O)[C@H](O)[C@H]2O)cc1 | 0.0021 | –
CCOC(=O)/C=C(\C)COc1ccc(C[C@@H]2CCCC[C@@H]2O)cc1 | 0.05 | –
CCOC(=O)/C=C(/C)COc1ccc(C[C@H]2CCCC[C@@H]2O[C@@H]2O[C@H](CO)[C@H](O)[C@H](O)[C@H]2O)cc1 | 3 | –
CCOC(=O)/C=C(/C)COc1ccc(C[C@H]2CCCC[C@@H]2O)cc1 (stereo in doubt; Z-2a) | – | inactive
CCOC(=O)/C=C(/C)COc1ccc(C[C@H]2CCCC[C@@H]2O[C@@H]2O[C@H](CO)[C@@H](O)[C@H](O)[C@H]2O)cc1 (stereo in doubt; Z-14a) | – | inactive
CCOC(=O)/C=C(/C)COc1ccc(C[C@@H]2CCCC[C@@H]2O)cc1 | 18 | –
